# Measured values published in patent US11629145B2, “SHP2 phosphatase inhibitors and methods of use thereof” (Relay Therapeutics, Inc., priority 2016, dated 2023).
# Target: SHP2 (Homo sapiens (Human), UniProt Q06124)
# Assay: SHP2 Allosteric Inhibition Assay
# Assay type: biochemical
# Settings: 0.25 nM SHP2 activated with 0.5 μM bis-phosphorylated IRS1 peptide; DiFMUP substrate, prompt fluorescence
row,Structure (SMILES),IC50
1,COc1ccc(Cn2nc(Oc3ccnc(Cl)c3Cl)c3ncc(N4CC[C@@H](N)C[C@@H]4C)nc32)cc1 [Compound 63],≥ 10000 nM
2,COc1ccc(Cn2nc(Oc3ccnc(Cl)c3Cl)c3ncc(N4CCC(O)(CN)CC4)nc32)cc1 [Compound 64],≥ 10000 nM
3,CC1(N)CCN(c2cnc3c(Oc4cccc(C(F)F)n4)n[nH]c3n2)CC1 [Compound 44],1000 to 10000 nM
4,CC1(N)CCN(c2cnc3c(OC4CCCNC4)n[nH]c3n2)CC1 (stereo not drawn) [Compound 21],≥ 10000 nM
5,CC1(N)CCN(c2cnc3c(Oc4ccnc(-c5nccs5)c4Cl)n[nH]c3n2)CC1 [Compound 61],< 1000 nM
6,CC1(N)CCN(c2cnc3c(Oc4ccnc(O)c4Cl)n[nH]c3n2)CC1 [Compound 45],< 1000 nM
7,CC1(N)CCN(c2cnc3c(Oc4ccncc4Cl)n[nH]c3n2)CC1 [Compound 32],< 1000 nM
8,Cc1cc(Oc2n[nH]c3nc(N4CCC(C)(N)CC4)cnc23)ccn1 [Compound 23],< 1000 nM
9,Cc1cc(Oc2n[nH]c3nc(N4CCC(C)(N)CC4)cnc23)c(Cl)cn1 [Compound 37],< 1000 nM
10,Cc1cnccc1Oc1n[nH]c2nc(N3CCC(C)(N)CC3)cnc12 [Compound 24],< 1000 nM
11,Cc1nccc(Oc2n[nH]c3nc(N4CC[C@@H](N)C[C@@H]4C)cnc23)c1Cl [Compound 38],< 1000 nM
12,CC1(N)CCN(c2cnc3c(OCc4ccccc4C#N)n[nH]c3n2)CC1 [Compound 33],< 1000 nM
13,CC1(N)CCN(c2cnc3c(Oc4ccnc(NC5COC5)c4Cl)n[nH]c3n2)CC1 [Compound 58],1000 to 10000 nM
14,CC1(N)CCN(c2cnc3c(OCc4cccc5[nH]ccc45)n[nH]c3n2)CC1 [Compound 46],< 1000 nM
15,Cc1nccc(Oc2n[nH]c3nc(N4CCC(C)(N)CC4)cnc23)c1C [Compound 29],< 1000 nM
16,CC(=O)N1CCCC(Oc2n[nH]c3nc(N4CCC(C)(N)CC4)cnc23)C1 (stereo not drawn) [Compound 35],1000 to 10000 nM
17,CC1(N)CCN(c2cnc3c(Oc4cc(N)ncc4Cl)n[nH]c3n2)CC1 [Compound 42],< 1000 nM
18,CC1(N)CCN(c2cnc3c(Oc4ncccc4C#N)n[nH]c3n2)CC1 [Compound 27],< 1000 nM
19,CC(Oc1n[nH]c2nc(N3CCC(C)(N)CC3)cnc12)c1ccccc1 (stereo not drawn) [Compound 28],< 1000 nM
20,CC1(N)CCN(c2cnc3c(Oc4ccccc4)n[nH]c3n2)CC1 [Compound 20],< 1000 nM
21,COc1nccc(Oc2n[nH]c3nc(N4CCC(C)(N)CC4)cnc23)c1Cl [Compound 50],< 1000 nM
22,CC1(N)CCN(c2cnc3c(OCc4cccnc4)n[nH]c3n2)CC1 [Compound 25],1000 to 10000 nM
23,CC1(CN)CCN(c2cnc3c(Oc4ccnc(Cl)c4Cl)n[nH]c3n2)C1 (stereo not drawn) [Compound 52],< 1000 nM
24,CC1(N)CCN(c2cnc3c(Oc4ccnc(Cl)c4Cl)n[nH]c3n2)CC1 [Compound 54],< 1000 nM

# Next, values leading:
row,IC50,Structure (SMILES)
1,< 1000 nM,Cc1nccc(Oc2n[nH]c3nc(N4CCC(O)(CN)CC4)cnc23)c1Cl [Compound 49]
2,< 1000 nM,CC1(N)CCN(c2cnc3c(Oc4ccccc4Cl)n[nH]c3n2)CC1 [Compound 31]
3,< 1000 nM,CC1(CN)CCN(c2cnc3c(Oc4ccnc(Cl)c4Cl)n[nH]c3n2)CC1 [Compound 56]
4,< 1000 nM,CC1(N)CCN(c2cnc3c(Oc4ccc(N)cc4Cl)n[nH]c3n2)CC1 [Compound 36]
5,< 1000 nM,COc1nccc(Oc2n[nH]c3nc(N4CCC(C)(N)CC4)cnc23)c1C#N [Compound 47]
6,< 1000 nM,Cn1cc(-c2nccc(Oc3n[nH]c4nc(N5CCC(C)(N)CC5)cnc34)c2Cl)cn1 [Compound 60]
7,< 1000 nM,CC1(N)CCN(c2cnc3c(Oc4ccnc(C(N)=O)c4Cl)n[nH]c3n2)CC1 [Compound 55]
8,< 1000 nM,CC1(N)CCN(c2cnc3c(Oc4ccncc4C(F)(F)F)n[nH]c3n2)CC1 [Compound 51]
9,< 1000 nM,CC1(N)CCN(c2cnc3c(OCc4ccncc4Cl)n[nH]c3n2)CC1 [Compound 40]
10,< 1000 nM,CC1(CN)CCN(c2cnc3c(Oc4ccnc(N)c4Cl)n[nH]c3n2)C1 (stereo not drawn) [Compound 43]
11,< 1000 nM,CC1(N)CCN(c2cnc3c(N4CCCCc5ccccc54)n[nH]c3n2)CC1 [Compound 82]
12,< 1000 nM,CC1(N)CCN(c2cnc3c(OCc4ccccc4)n[nH]c3n2)CC1 [Compound 22]
13,< 1000 nM,Cc1nccc(Oc2n[nH]c3nc(N4CCC(C)(N)CC4)cnc23)c1Cl [Compound 39]
14,< 1000 nM,CC1(N)CCN(c2cnc3c(Oc4ccnc(N5CCOCC5)c4Cl)n[nH]c3n2)CC1 [Compound 62]
15,< 1000 nM,NCC1(O)CCN(c2cnc3c(Oc4ccnc(Cl)c4Cl)n[nH]c3n2)CC1 [Compound 57]
16,< 1000 nM,C[C@H]1C[C@H](N)CCN1c1cnc2c(Oc3ccnc(Cl)c3Cl)n[nH]c2n1 [Compound 53]
17,< 1000 nM,CC1(CN)CCN(c2cnc3c(Oc4ccnc(N)c4Cl)n[nH]c3n2)CC1 [Compound 48]
18,< 1000 nM,CC1(N)CCN(c2cnc3c(Oc4ccccc4C#N)n[nH]c3n2)CC1 [Compound 26]
19,< 1000 nM,CC1(N)CCN(c2cnc3c(Oc4cc(Br)ncc4Cl)n[nH]c3n2)CC1 [Compound 59]
20,< 1000 nM,CC1(N)CCN(c2cnc3c(Oc4ccc(N)cc4C#N)n[nH]c3n2)CC1 [Compound 34]
21,< 1000 nM,CC1(N)CCN(c2cnc3c(OCc4cccnc4N)n[nH]c3n2)CC1 [Compound 30]
